In brackets after ≈: the same amount, converted by molar mass. Where a name gives a salt, the structure may show the parent alone.
Key:
[1] = tested on: Aerobasidium pullulans (A.p); assay: Zone of inhibition, polyvinyl chloride film; assay type: cell-based; settings: PVC film
[2] = tested on: Staphlococcus aureus (S.a); assay: Zone of inhibition, polyvinyl chloride film discs on inoculated agar; assay type: cell-based; settings: for Zone of Inhibition: PVC film; for Zones: PVC
Procedure: (§1) In a two-liter, three-necked, round-bottom, flask equipped with a mechanical stirrer was placed 100 g of polyvinyl chloride, 590 g of reagent grade tetrahydrofuran, and 40.0 g of dioctylphthalate. This was stirred with gentle heating (35°-40° C.) for two hours to completely dissolve the polyvinyl chloride. Then, a barium/calcium salt of a fatty acid (3.5 g), a phosphite chelating agent (1.5 g), stearic Acid (0.25 g) and epoxidized soy bean oil (7.5 g), were mixed with 21 g of tetrahydrofuran and added to the polyvinyl chloride solution. After stirring at room temperature for 30 minutes, the solution was ready for use.
(§2) Films containing the isothiazolones were cast by first preparing a 0.5 weight percent polyvinyl chloride solution by adding the isothiazolone to the polyvinyl chloride solution. Then, portions of the 0.5% solution were diluted to 0.1 and 0.05%. The films were drawn down on 12"×12" glass plates using a 50 mil-3" wide coating bar and the films were allowed to air dry for 48 hours.
(§3) The films were cut into 1.25 cm discs and placed in agar plates inoculated with Staphlococcus aureus (S.a) or Echerichia coli (E.c.).

[3] = tested on: Echerichia coli (E.c.); assay: as above; assay type: cell-based; settings: for Zone of Inhibition: PVC film; for Zones: PVC
Procedure: as §1, §2, §3

[4] = tested on: Aspergillis niger (A.n.); assay: Growth of fungus on polyvinyl chloride film; assay type: cell-based; parameters: key: 0: zero (no growth); 5: five (heavy growth); settings: PVC film
Procedure: as §1, §2
(§4) In addition to zones of inhibition, the films were observed by growth of fungus on the film and rated from zero (no growth) to five (heavy growth).

[5] = tested on: Aerobasidium pullulans (A.p); assay: Growth of fungus on polyvinyl chloride film; assay type: cell-based; parameters: key: 0: zero (no growth); 5: five (heavy growth); settings: PVC film
Procedure: as §1, §2, §4

[6] = tested on: Aspergillis niger (A.n.); assay: Zone of inhibition, polyvinyl chloride film; assay type: cell-based; settings: PVC film
[7] = Solubility in H2O; assay type: physicochemical; settings: water
[8] = tested on: E.c.; assay: Zone of inhibition, silicone rubber film discs on inoculated agar; assay type: cell-based, Echerichia coli; settings: Silicone
Source text: as §3
(§5) The films were cut into discs and tested as in example one against S.a. and E.c.

[9] = tested on: Pseudomonas aeruginosa (P.a.); assay: Zone of inhibition, polyvinyl chloride (vinyl) film discs; assay type: cell-based; settings: PVC
Procedure: as §1, §3
Discs were tested against Pseudomonas aeruginosa (P.a.). The 1.0% films gave a slight zone of inhibition while the 5.0% film gave a 1 mm zone of inhibition.

[10] = tested on: S.a.; assay: Zone of inhibition, silicone rubber film discs on inoculated agar; assay type: cell-based, Staphlococcus aureus; settings: Silicone, S.a.
Source text: as §3, §5

[11] = tested on: P.a.; assay: Zone of inhibition, silicone film; assay type: cell-based, Pseudomonas aeruginosa
[12] = tested on: Escherichia coli; assay: Minimum inhibitory concentration, bacteriostatic activity; assay type: cell-based; settings: Table III: Active Ingredient MIC
[13] = tested on: Pseudomonas aeruginosa; assay: as above; assay type: cell-based; settings: Table III: Active Ingredient MIC
[14] = tested on: Aureobasidium pullulans; assay: Minimum inhibitory concentration, fungistatic activity; assay type: cell-based; settings: Table III: Active Ingredient MIC
[15] = tested on: Aspergillus niger; assay: as above; assay type: cell-based; settings: Table III: Active Ingredient MIC
[16] = tested on: Candida albicans (yeast); assay: as above; assay type: cell-based; settings: Table III: Active Ingredient MIC
[17] = tested on: Staphylococcus aureus; assay: Minimum inhibitory concentration, bacteriostatic activity; assay type: cell-based; settings: Table III: Active Ingredient MIC

CCCCCCn1sc(Cl)c(Cl)c1=O [Compound 4, 4,5-Dichloro-N--n-hexyl-isothiazolin-3-one]
Zone of Inhibition ([1]; 0.05%): 0 mm
Zone of Inhibition ([1]; 0.1%): 0 mm
Zone of Inhibition ([1]; 0.5%): 2.8 mm
Zone of Inhibition ([2]; 0.05%): 1.3 mm
Zone of Inhibition ([2]; 0.1%): 2.3 mm
Zone of Inhibition ([2]; 0.5%): 9.3 mm
Zone of Inhibition ([3]; 0.05%): 0 mm
Zone of Inhibition ([3]; 0.1%): 0 mm
Zone of Inhibition ([3]; 0.5%): 0.8 mm
Growth on Film ([4]; 0.05%): 0
Growth on Film ([4]; 0.1%): 0
Growth on Film ([4]; 0.5%): 0
Growth on Film ([5]; 0.05%): 3
Growth on Film ([5]; 0.1%): 0
Growth on Film ([5]; 0.5%): 0
Zone of Inhibition ([6]; 0.05%): 0 mm
Zone of Inhibition ([6]; 0.1%): 0 mm
Zone of Inhibition ([6]; 0.5%): 3.8 mm
solubility [7]: 143 µg/mL (≈ 563 µM)

CN(C)C1C(=O)C(C(N)=O)=C(O)C2(O)C(=O)C3=C(O)c4c(O)cccc4C(C)(O)C3CC12 (stereo not drawn) [T, Tetracycline HCl, reference compound]
Zones ([2]; 1.0%): 11.3 mm
Zones ([2]; 5.0%): 19.8 mm
Zones ([2]; .04%): 0 mm
Zones ([2]; .20%): 0 mm
Zones ([3]; 1.0%): 0 mm
Zones ([3]; .04%): 0 mm
Zones ([3]; .20%): 5.8 mm
Zones ([8]; 1.0%): 9.8 mm
Zones ([8]; 5.0%): 19.8 mm
Zones ([8]; .04%): 0 mm
Zones ([8]; .20%): 5.8 mm
Zones ([9]; 1.0%): 0 mm
Zones ([9]; 5.0%): 0 mm
Zones ([9]; .04%): 0 mm
Zones ([9]; .20%): 0 mm
Zones ([10]; 1.0%): 21.3 mm
Zones ([10]; 5.0%): 26.3 mm
Zones ([10]; .04%): 6.3 mm
Zones ([10]; .20%): 15.8 mm
Zones ([11]; 1.0%): 0 mm
Zones ([11]; 5.0%): 0 mm
Zones ([11]; .20%): 0.3 mm

CCN1CCN(C(=O)N[C@@H](C(=O)N[C@@H]2C(=O)N3[C@@H]2SC(C)(C)[C@@H]3C(=O)O)c2ccccc2)C(=O)C1=O [P, Piperacillin Na, reference compound]
Zones ([2]; 1.0%): slight
Zones ([2]; 5.0%): 13.8 mm
Zones ([2]; .04%): 0 mm
Zones ([2]; .20%): 0 mm
Zones ([3]; 1.0%): 0 mm
Zones ([3]; .04%): 0 mm
Zones ([3]; .20%): 0 mm
Zones ([8]; 1.0%): 13.3 mm
Zones ([8]; 5.0%): 17.3 mm
Zones ([8]; .04%): 0 mm
Zones ([8]; .20%): 0.8 mm
Zones ([9]; 1.0%): 0 mm
Zones ([9]; 5.0%): 9.8 mm
Zones ([9]; .04%): 0 mm
Zones ([9]; .20%): 0 mm
Zones ([10]; 1.0%): 14.8 mm
Zones ([10]; 5.0%): 21.3 mm
Zones ([10]; .04%): 0 mm
Zones ([10]; .20%): 0 mm
Zones ([11]; 1.0%): 5.3 mm
Zones ([11]; 5.0%): 13.3 mm
Zones ([11]; .04%): 0 mm
Zones ([11]; .20%): 0 mm

O=c1c(Cl)c(Cl)sn1Cc1ccccc1 [Compound 2, 4,5-Dichloro-N--benzyl-isothiazolin-3-one]
Zone of Inhibition ([1]; 0.05%): 0 mm
Zone of Inhibition ([1]; 0.1%): 0 mm
Zone of Inhibition ([1]; 0.5%): 4.8 mm
Zone of Inhibition ([2]; 0.05%): 2.0 mm
Zone of Inhibition ([2]; 0.1%): 3.8 mm
Zone of Inhibition ([3]; 0.05%): 0 mm
Zone of Inhibition ([3]; 0.1%): 0 mm
Zone of Inhibition ([3]; 0.5%): 3.3 mm
Growth on Film ([4]; 0.05%): 4
Growth on Film ([4]; 0.1%): 0
Growth on Film ([4]; 0.5%): 0
Growth on Film ([5]; 0.05%): 4
Growth on Film ([5]; 0.1%): 0
Growth on Film ([5]; 0.5%): 0
Zone of Inhibition ([6]; 0.05%): 0 mm
Zone of Inhibition ([6]; 0.1%): 0 mm
Zone of Inhibition ([6]; 0.5%): 4.3 mm
solubility [7]: 195 µg/mL (≈ 750 µM)

O=c1cc(Cl)sn1Cc1ccc(Cl)cc1 [5-chloro-2-(p-chlorobenzyl)-4-isothiazolin-3-one]
MIC [12]: 8 µg/mL (≈ 30.8 µM)
MIC [13]: 8 µg/mL (≈ 30.8 µM)
MIC [14]: 8 µg/mL (≈ 30.8 µM)
MIC [15]: 4 µg/mL (≈ 15.4 µM)
MIC [16]: 4 µg/mL (≈ 15.4 µM)
MIC [17]: 4 µg/mL (≈ 15.4 µM)

CCCCCCCn1sc(Cl)c(Cl)c1=O [Compound 6, 4,5-Dichloro-N--n-heptyl-isothiazolin-3-one]
Zone of Inhibition ([1]; 0.05%): 3 mm
Zone of Inhibition ([1]; 0.1%): 1 mm
Zone of Inhibition ([1]; 0.5%): 0 mm
Zone of Inhibition ([2]; 0.05%): 0 mm
Zone of Inhibition ([2]; 0.1%): 1.3 mm
Zone of Inhibition ([2]; 0.5%): 4.3 mm
Zone of Inhibition ([3]; 0.05%): 0 mm
Zone of Inhibition ([3]; 0.1%): 0 mm
Zone of Inhibition ([3]; 0.5%): 0 mm
Growth on Film ([4]; 0.05%): 0
Growth on Film ([4]; 0.1%): 0
Growth on Film ([4]; 0.5%): 0
Growth on Film ([5]; 0.05%): 3
Growth on Film ([5]; 0.1%): 2
Growth on Film ([5]; 0.5%): 0
Zone of Inhibition ([6]; 0.05%): 0 mm
Zone of Inhibition ([6]; 0.1%): 0 mm
Zone of Inhibition ([6]; 0.5%): 0 mm
solubility [7]: 25 µg/mL (≈ 93.2 µM)

Gentamycin sulfate [reference compound]
Zones ([2]; .04%): slight
Zones ([3]; 5.0%): 9.3 mm
Zones ([3]; .04%): 0 mm
Zones ([9]; 5.0%): 6.8 mm
Zones ([9]; .04%): 0 mm
Zones ([9]; .20%): 3.3 mm

O=c1c(Cl)c(Cl)sn1CCc1ccccc1 [Compound 3, 4,5-Dichloro-N-- 2-phenethyl-isothiazolin-3-one]
Zone of Inhibition ([1]; 0.05%): 0 mm
Zone of Inhibition ([1]; 0.1%): 0 mm
Zone of Inhibition ([1]; 0.5%): 3.8 mm
Zone of Inhibition ([2]; 0.05%): 1.8 mm
Zone of Inhibition ([2]; 0.1%): 4.3 mm
Zone of Inhibition ([2]; 0.5%): 10.8 mm
Zone of Inhibition ([3]; 0.05%): 0 mm
Zone of Inhibition ([3]; 0.1%): 0 mm
Zone of Inhibition ([3]; 0.5%): 1.8 mm
Growth on Film ([4]; 0.05%): 1
Growth on Film ([4]; 0.1%): 0
Growth on Film ([4]; 0.5%): 0
Growth on Film ([5]; 0.05%): 2
Growth on Film ([5]; 0.1%): 0
Growth on Film ([5]; 0.5%): 0
Zone of Inhibition ([6]; 0.05%): 0 mm
Zone of Inhibition ([6]; 0.1%): 0 mm
Zone of Inhibition ([6]; 0.5%): 4.8 mm
solubility [7]: 96 µg/mL (≈ 350 µM)

From patent publication US4542169A, “Biomedical devices containing isothiazolones to control bacteria growth” (Rohm and Haas Company, priority 1983, dated 1985)
